The values that follow come from the Deep4Chem optical property database.

The nature of this data set: solvent given as SMILES.

SMILES strings stand for the structures.

In the case of `CN(C)c1ccc(C#Cc2ccc(C#N)cc2)cc1`, the emission maximum amounted to 383 nm (in C1CCCCC1); 505 nm (in C1CCOC1); 446.01 nm (in C1COCCO1); 468.01 nm (in CC1CCCO1); 571 nm (in CC#N); 543.01 nm (in CC(C)=O). The emission maximum (in CC(C)CC(C)(C)C) amounted to 380 nm; the emission maximum (in CC(C)O) is 510 nm; the emission maximum (in CCCCCCCCCCCCCCCC) is given as 385 nm; the emission maximum (in CCCCCCCCCCCCCCCCCl) is 423.6 nm; the emission maximum (in CCOC(C)=O) is reported as 482 nm; the emission maximum (in CCOCC) is reported as 453 nm. Further, the emission maximum (in CN(C)C=O) turned out to be 566 nm, the emission maximum (in CO) is recorded as 547.02 nm, the emission maximum (in CS(C)=O) stood at 573 nm and the emission maximum (in Cc1ccccc1) was 427 nm.

For `CN(C)c1ccc(C#Cc2ccc3ccc4ccc(C#Cc5ccc(N(C)C)cc5)c5ccc2c3c45)cc1`, the emission maximum (in C1COCCO1) is listed as 491.8 nm; the emission maximum (in CC(C)=O) is reported as 570.9 nm; the emission maximum (in CCCCCC) turned out to be 459 nm; the emission maximum (in CCCCCCO) is 531.8 nm; the emission maximum (in CCO) is recorded as 543 nm; the emission maximum (in CCOC(C)=O) stood at 529.9 nm. Further, the emission maximum is on record as 555.1 nm (in CO), 482 nm (in Cc1ccccc1) and 532.7 nm (in ClCCl).

Turning to `c1ccc(-c2nc(-c3ccccc3)nc(-n3c4ccccc4c4cc(-n5c6ccccc6c6ccccc65)ccc43)n2)cc1`, the emission maximum was 535.43 nm (in C1CCOC1) and 502.82 nm (in Cc1ccccc1).

As for `Cc1ccc(CN(Cc2ccc(C)cc2)c2nc(C#N)c(N(Cc3ccc(C)cc3)Cc3ccc(C)cc3)nc2C#N)cc1`, the emission maximum (in ClC(Cl)Cl) is given as 592 nm.

As for `COc1ccc(C2=C3C=c4c(oc5cc6c(cc45)[C@H]4CC[C@]5(C)C(=O)CC[C@H]5[C@@H]4CC6)=[N+]3[B-](F)(F)n3c2cc2c4cc5c(cc4oc23)CC[C@@H]2[C@@H]5CC[C@]3(C)C(=O)CC[C@@H]23)cc1`, the emission maximum by setting is: (in CCOC(C)=O) 615 nm; (in CCOCC) 611.5 nm; (in CO) 613.5 nm.

As to `C[n+]1ccc(/C=C/c2ccc(N(c3ccccc3)c3ccc(/C=C/c4cc[n+](C)cn4)cc3)cc2)nc1`, the emission maximum is, setting by setting: (in CS(C)=O) 720 nm; (in OCC(O)CO) 685 nm.

As to `F[B-]1(F)Oc2c(ccc3c4c(ccc23)C=[N+](c2ccccc2)[B-](F)(F)O4)C=[N+]1c1ccccc1`, the emission maximum by setting is: (in Cc1ccccc1) 538 nm; (in ClCCl) 533 nm.

Compound `CCc1c(C)[nH]c(C2=[N+]3C(=Cc4c(C)cc(C)n4[B-]3(F)F)c3ccccc32)c1C` came in with an emission maximum (in C1CCOC1) of 635 nm; an emission maximum (in CC#N) of 632 nm; an emission maximum (in CCCCCC) of 630 nm; an emission maximum (in CO) of 631 nm; an emission maximum (in Cc1ccccc1) of 642 nm; an emission maximum (in ClCCl) of 640 nm.

As to `C[Si](C)(c1ccc(-c2nc3ccccc3n2-c2ccccc2)cc1)c1ccc(-c2nc3ccccc3n2-c2ccccc2)cc1`, the emission maximum (in ClCCl) is given as 359 nm.

In turn, `c1ccc(-c2nc(-c3ccccc3)nc(-c3ccc(N4c5ccccc5C5(c6ccccc64)c4ccccc4C4(c6ccccc6Sc6ccccc64)c4ccccc45)cc3)n2)cc1` came in with an emission maximum (in Cc1ccccc1) of 468.93 nm.

Consider `Fc1nc(F)c(F)c(/C=C2/C(c3c(F)c(F)nc(F)c3F)=Cc3ccccc32)c1F`, for which the emission maximum (in CC#N) was determined as 395 nm.

Regarding `Cc1ccc(-c2nc(-c3ccc(C#N)cc3)[nH]c2-c2ccc(C)cc2)cc1`, for the setting “in CO”, the emission maximum turned out to be 447 nm.

For `COC(=O)CN1C(=O)c2cc3ccc(N(C)C)cc3cc2C1=O`, the emission maximum reads like this: (in C1CCOC1) 510 nm; (in CC#N) 549 nm; (in CC(C)=O) 532 nm; (in CCO) 584 nm; (in Cc1ccccc1) 491 nm; (in ClC(Cl)Cl) 509 nm.

`COc1cc2oc(=O)c3c4ccc(C(=O)c5ccccc5)cc4c4ccc5cccc6c(c1)c2c3c4c56`: the emission maximum (in C1CCOC1) was 443 nm.

Take `C(=C\c1ccc(-c2ccncc2)cc1)/c1ccc(-c2ccncc2)cc1`: for the setting “in ClCCl”, the emission maximum was determined as 387 nm.

In turn, `Cc1cccn2c1cc1c3ccccc3nc(-c3cccs3)c12` returned an emission maximum (in CS(C)=O) of 514 nm.

Consider `COC(=O)c1cccc2c1C#Cc1c(N)cccc1OCCCO2`, for which the emission maximum by setting is: (in CC#N) 487 nm; (in ClCCl) 453 nm.

`CC(C)(C)c1ccc(-c2ccc3c(-c4ccc(C(C)(C)C)c5ccccc45)cc4c5cc(-c6ccc(C(C)(C)C)c7ccccc67)ccc5c(-c5ccc(C(C)(C)C)c6ccccc56)cc4c3c2)c2ccccc12`: the emission maximum (in ClCCl) turned out to be 405 nm.

`N#Cc1cc(C#N)c(-n2c3ccccc3c3cc(-c4ccc5c(c4)c4ccccc4n5-c4cc(-n5c6ccccc6c6ccccc65)c(C#N)cc4C#N)ccc32)cc1-n1c2ccccc2c2ccccc21` yielded an emission maximum (in O=P(c1ccccc1)(c1ccccc1)c1ccccc1Oc1ccccc1P(=O)(c1ccccc1)c1ccccc1) of 470 nm.

As to `c1cc(-c2ccc3sc4ccccc4c3c2)cc(-c2cc(-c3cccc(-c4ccc5sc6ccccc6c5c4)c3)ncn2)c1`, the emission maximum (in ClCCl) amounted to 411 nm.

In the case of `CCCCCCCCCCCCOc1ccc(C2=c3sc4ccccc4c3=[N+]3C2=Nc2c(-c4ccc(OCCCCCCCCCCCC)cc4)c4sc5ccccc5c4n2[B-]3(F)F)cc1`, the emission maximum (in C1CCOC1) is on record as 813 nm, the emission maximum (in Cc1ccccc1) is listed as 804 nm and the emission maximum (in ClC(Cl)Cl) amounted to 808 nm.

For the compound `CN(C)c1ccc2cc3ccc(=[N+](C)C)cc-3oc2c1`, the emission maximum runs as follows: (in CCO) 568 nm; (in O) 565 nm.

In turn, `F[B-]1(F)n2cccc2C(c2ccccc2)=C2C=CC(c3ccc(OC4=[N+]5C(=C(c6ccccc6)c6cc(Br)c(Br)n6[B-]5(F)F)C=C4Br)cc3)=[N+]21` gave an emission maximum (in ClC(Cl)Cl) of 574 nm.

For the compound `COc1ccc(/C=C/c2ccccc2)cc1OC`, the emission maximum worked out at 372 nm (in C1CCCCC1); 385 nm (in CC#N); 374 nm (in CC(C)O); 375 nm (in CCCCOCCCC); 382 nm (in CCOC(C)=O); 373 nm (in CCOCC).

The compound `N#Cc1coc2ccccc2c1=O` came in with an emission maximum (in C1CCOC1) of 373 nm; an emission maximum (in C1COCCO1) of 402 nm; an emission maximum (in CC#N) of 495 nm; an emission maximum (in CC(C)O) of 411 nm; an emission maximum (in CCCCO) of 500 nm; an emission maximum (in CCCO) of 440 nm. The emission maximum (in CCOC(C)=O) was found to be 495 nm; the emission maximum (in CN(C)C=O) was 494 nm; the emission maximum (in CO) came to 415 nm; the emission maximum (in CS(C)=O) is 490 nm; the emission maximum (in ClC(Cl)Cl) stood at 438 nm; the emission maximum (in O) turned out to be 396 nm.

For the compound `C(=C\c1c2ccccc2cc2ccccc12)/c1ccccc1`, the emission maximum turned out to be 468 nm (in CC1CCCCC1) and 476 nm (in CC#N).

As to `COC(=O)c1nc(-c2ccco2)oc1C`, the emission maximum is reported as 302 nm (in C1CCCCC1), 318 nm (in CC#N), 323 nm (in CCO) and 304 nm (in CCOC(C)=O).

With `CCOC(=O)/N=c1/oc2cc(N(CC)CC)ccc2cc1C#N`, the emission maximum (in ClCCl) turned out to be 486 nm.

In turn, `CCOC(=O)CCCn1c(C(=O)OC)c(C)c2c(=O)n3c(cc21)C(CC)=C(C)C3=O` registered an emission maximum (in C1CCCCC1) of 434 nm; an emission maximum (in CO) of 499 nm; an emission maximum (in CS(C)=O) of 481 nm; an emission maximum (in ClC(Cl)Cl) of 456 nm; an emission maximum (in c1ccccc1) of 446 nm.

`c1ccc(-n2c(-c3ccc(N(c4ccc(-c5ccc(N(c6ccc(-c7nc8c9ccccc9c9ccccc9c8n7-c7ccccc7)cc6)c6ccc(-c7nc8c9ccccc9c9ccccc9c8n7-c7ccccc7)cc6)cc5)cc4)c4ccc(-c5nc6c7ccccc7c7ccccc7c6n5-c5ccccc5)cc4)cc3)nc3c4ccccc4c4ccccc4c32)cc1` had an emission maximum (in ClCCl) of 432 nm.

Where the note is “in O”, `CC[n+]1c(-c2ccccc2)c2cc(N)ccc2c2ccc(N)cc21` displayed an emission maximum of 606 nm.

As to `COc1ccc2cc(C#N)c(=N)oc2c1`, the emission maximum (in ClCCl) is 387 nm.

In turn, `COc1cc(OC)cc(C2=C3C(C)=C(I)C(/C=C/c4c[nH]c5ccc([N+](=O)[O-])cc45)=[N+]3[B-](F)(F)n3c(/C=C/c4c[nH]c5ccc([N+](=O)[O-])cc45)c(I)c(C)c32)c1` showed an emission maximum (in C1CCOC1) of 720 nm, an emission maximum (in CS(C)=O) of 748 nm and an emission maximum (in ClCCl) of 721 nm.

`CC(=O)c1ccc(-c2ccc3c(c2)C(=O)c2cc(-c4ccc(C(C)=O)cc4)ccc2-3)cc1` showed an emission maximum (in C1CCOC1) of 375 nm.

Turning to `CC(C)(C)c1ccc2c(c1)c1cc(C(C)(C)C)ccc1n2-c1ccc(-c2cccs2)s1`, the emission maximum (in ClCCl) came out at 417 nm.

As for `c1ccc(-c2nc(-c3cccc4ccccc34)n3ccccc23)cc1`, the emission maximum reads like this: (in C1CCCCC1) 478 nm; (in CC#N) 480 nm; (in CO) 475 nm; (in ClCCl) 486 nm; (in O) 475 nm.

`Cc1ccc2c3ccc(C)cc3c3cc4c(C)cc(=O)oc4cc3c2c1`: the emission maximum (in ClC(Cl)Cl) stood at 422 nm.

With `COc1ccc(-c2cnc3cccc(-c4ccccc4)n23)cc1`, the emission maximum (in ClCCl) came out at 484 nm.

`CC1=[N+]2C(=C(c3ccc(-c4c5ccccc5c(-c5ccccc5)c5ccccc45)cc3)c3ccc(C)n3[B-]2(F)F)C=C1` yielded an emission maximum (in CC#N) of 523 nm; an emission maximum (in CCCCCC) of 526 nm; an emission maximum (in CCO) of 526 nm; an emission maximum (in CN(C)C=O) of 529 nm; an emission maximum (in Cc1ccccc1) of 532 nm; an emission maximum (in ClCCl) of 526 nm.

Turning to `CCCCC(CC)Cn1c2cc(C#N)ccc2c2ccc(C#Cc3cc(C#Cc4ccc5c6ccc(C#N)cc6n(CC(CC)CCCC)c5c4)c4ccc5c(C#Cc6ccc7c8ccc(C#N)cc8n(CC(CC)CCCC)c7c6)cc(C#Cc6ccc7c8ccc(C#N)cc8n(CC(CC)CCCC)c7c6)c6ccc3c4c65)cc21` (configuration not stated), the emission maximum (in ClCCl) was 486 nm.
